In PubChem BioAssay (NCI):
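Values below derive from 48-hour exposures of cells grown in 96-well plates, with endpoints linearly interpolated between the two concentrations bracketing the appropriate inhibition level. GI50: concentration for 50% inhibition of growth. TGI marks complete inhibition of growth.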

How the values were obtained:
Test in all cases: NCI anticancer screen, dose series, 48 h
[1] = system: 786-0 renal
[2] = system: A498 renal
[3] = system: A549 NSCLC
[4] = system: ACHN renal
[5] = system: BT-549 breast
[6] = system: CAKI-1 renal
[7] = system: CCRF-CEM leukemia
[8] = system: COLO 205 colon
[9] = system: DU-145 prostate
[10] = system: EKVX NSCLC
[11] = system: HCC-2998 colon
[12] = system: HCT-116 colon
[13] = system: HCT-15 colon
[14] = system: HL-60(TB) leukemia
[15] = system: HOP-62 NSCLC
[16] = system: HOP-92 NSCLC
[17] = system: HS 578T breast
[18] = system: HT29 colon
[19] = system: IGROV1 ovarian
[20] = system: K-562 leukemia
[21] = system: KM12 colon
[22] = system: LOX IMVI melanoma
[23] = system: M14 melanoma
[24] = system: MALME-3M melanoma
[25] = system: MCF7 breast
[26] = system: MDA-MB-231 breast
[27] = system: MDA-MB-435
[28] = system: MOLT-4 leukemia
[29] = system: NCI-H226 lung
[30] = system: NCI-H23 lung
[31] = system: NCI-H460 lung
[32] = system: NCI-H522 lung
[33] = system: NCI/ADR-RES ovarian
[34] = system: OVCAR-3 ovarian
[35] = system: OVCAR-4 ovarian
[36] = system: OVCAR-8 ovarian
[37] = system: RPMI-8226 leukemia
[38] = system: SF-268 CNS
[39] = system: SF-295 CNS
[40] = system: SF-539 CNS
[41] = system: SK-MEL-2 melanoma
[42] = system: SK-MEL-28 melanoma
[43] = system: SK-MEL-5 melanoma
[44] = system: SK-OV-3 ovarian
[45] = system: SN12C renal
[46] = system: SNB-19 CNS
[47] = system: SNB-75 CNS
[48] = system: SR leukemia
[49] = system: SW-620 colon
[50] = system: T-47D breast
[51] = system: TK-10 renal
[52] = system: U251 CNS
[53] = system: UACC-257 melanoma
[54] = system: UACC-62 melanoma
[55] = system: UO-31 renal

## O=C(/C=C/c1cccc(O)c1)c1cccc(-n2cc(-c3ccc(Cl)cc3)[nH]c2=O)c1
[1]
  GI50: 1.57 µM
  TGI: 2.99 µM
[2]
  GI50: 3.71 µM
  TGI: 16.1 µM
[3]
  GI50: 3.55 µM
  TGI: > 100 µM
[4]
  GI50: 1.84 µM
  TGI: 4.13 µM
[5]
  GI50: 1.45 µM
  TGI: 3.72 µM
[6]
  GI50: 1.72 µM
  TGI: 4.07 µM
[7]
  GI50: 1.76 µM
  TGI: 9.97 µM
[8]
  GI50: 2.29 µM
  TGI: 4.95 µM
[9]
  GI50: 1.68 µM
  TGI: 4.18 µM
[10]
  GI50: 2.4 µM
  TGI: 9.62 µM
[11]
  GI50: 13.7 µM
  TGI: 27.6 µM
[12]
  GI50: 1.23 µM
  TGI: 2.52 µM
[13]
  GI50: 2.34 µM
  TGI: 10.5 µM
[14]
  GI50: 1.09 µM
  TGI: 3.51 µM
[15]
  GI50: 2.36 µM
  TGI: 4.88 µM
[16]
  GI50: 1.6 µM
  TGI: 5.41 µM
[17]
  GI50: 4 µM
  TGI: 44 µM
[18]
  GI50: 1.9 µM
  TGI: 3.99 µM
[19]
  GI50: 1.92 µM
  TGI: 6.38 µM
[20]
  GI50: 0.405 µM
  TGI: 3.63 µM
[21]
  GI50: 1.34 µM
  TGI: 3 µM
[22]
  GI50: 1.57 µM
  TGI: 3.11 µM
[23]
  GI50: 2.01 µM
  TGI: 4.44 µM
[24]
  GI50: 1.83 µM
  TGI: 6.16 µM
[25]
  GI50: 1.29 µM
  TGI: 3.76 µM
[26]
  GI50: 3.35 µM
  TGI: 17.3 µM
[27]
  GI50: 2.06 µM
  TGI: 6.64 µM
[28]
  GI50: 0.535 µM
  TGI: 6.31 µM
[29]
  GI50: 2.31 µM
  TGI: 5.5 µM
[30]
  GI50: 2.78 µM
  TGI: 10.6 µM
[31]
  GI50: 2.41 µM
  TGI: 5.99 µM
[32]
  GI50: 1.65 µM
  TGI: 4.36 µM
[33]
  GI50: 2.2 µM
  TGI: 5.96 µM
[34]
  GI50: 1.56 µM
  TGI: 3.44 µM
[35]
  GI50: 2.21 µM
  TGI: 8.96 µM
[36]
  GI50: 0.998 µM
  TGI: > 100 µM
[37]
  GI50: 1.55 µM
  TGI: 4.64 µM
[38]
  GI50: 1.78 µM
  TGI: 3.94 µM
[39]
  GI50: 1.79 µM
  TGI: 3.88 µM
[40]
  GI50: 1.68 µM
  TGI: 3.22 µM
[41]
  GI50: 2.07 µM
  TGI: 4.67 µM
[42]
  GI50: 3.64 µM
  TGI: 15.9 µM
[43]
  GI50: 1.53 µM
  TGI: 3.36 µM
[44]
  GI50: 4.22 µM
  TGI: 17.2 µM
[45]
  GI50: 1.95 µM
  TGI: 5.93 µM
[46]
  GI50: 1.92 µM
  TGI: 4.37 µM
[47]
  GI50: 1.46 µM
  TGI: 3.04 µM
[48]
  GI50: 0.217 µM
  TGI: 1.07 µM
[49]
  GI50: 1.62 µM
  TGI: 4.74 µM
[50]
  GI50: 1.92 µM
  TGI: 6.03 µM
[51]
  GI50: 2.83 µM
  TGI: 9.13 µM
[52]
  GI50: 0.588 µM
  TGI: 2.15 µM
[53]
  GI50: 4.07 µM
  TGI: 26.3 µM
[54]
  GI50: 1.85 µM
  TGI: 4.27 µM
[55]
  GI50: 0.558 µM
  TGI: 3.46 µM
